Molecular target: T1, HEK cells stably transfected with tetracycline inducible hNR1 and hNR2A (Homo sapiens, UniProt Q05586+Q12879)
T1 construct: expressed in transfected cells; host or cells: HEK cells, stably transfected, tetracycline/doxycycline inducible
Experiment: Assay 1: Cell-Based Assay, cytosolic calcium response to positive allosteric modulators (with 30 μM glycine and 300 nM L-glutamate, EC30)
Settings: Table 2; for EC50: cytosolic calcium response, with 30 μM glycine and 300 nM L-glutamate (EC30), — = no plateau was reached; for Max %: responses scaled relative to 100 μM L-glutamate maximal response (100%) and 0 μM L-glutamate (0%)
In short: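 Cells induced 24 h with 7.5 μg mL^−1 doxycycline plus 500 μM (+)-ketamine, loaded 60 min at 37 °C with calcium dye in Mg-free HBSS (1.8 mM Ca, probenecid, 10 μM (+)-ketamine, pH 7.15). Peak RFU over 5 min after compound addition, scaled to 100 μM L-glutamate (100%) and 0 μM (0%); four-parameter Hill fit for EC50, max % if no plateau.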

T1 sequence (Q12879 23-1464, other chains not shown): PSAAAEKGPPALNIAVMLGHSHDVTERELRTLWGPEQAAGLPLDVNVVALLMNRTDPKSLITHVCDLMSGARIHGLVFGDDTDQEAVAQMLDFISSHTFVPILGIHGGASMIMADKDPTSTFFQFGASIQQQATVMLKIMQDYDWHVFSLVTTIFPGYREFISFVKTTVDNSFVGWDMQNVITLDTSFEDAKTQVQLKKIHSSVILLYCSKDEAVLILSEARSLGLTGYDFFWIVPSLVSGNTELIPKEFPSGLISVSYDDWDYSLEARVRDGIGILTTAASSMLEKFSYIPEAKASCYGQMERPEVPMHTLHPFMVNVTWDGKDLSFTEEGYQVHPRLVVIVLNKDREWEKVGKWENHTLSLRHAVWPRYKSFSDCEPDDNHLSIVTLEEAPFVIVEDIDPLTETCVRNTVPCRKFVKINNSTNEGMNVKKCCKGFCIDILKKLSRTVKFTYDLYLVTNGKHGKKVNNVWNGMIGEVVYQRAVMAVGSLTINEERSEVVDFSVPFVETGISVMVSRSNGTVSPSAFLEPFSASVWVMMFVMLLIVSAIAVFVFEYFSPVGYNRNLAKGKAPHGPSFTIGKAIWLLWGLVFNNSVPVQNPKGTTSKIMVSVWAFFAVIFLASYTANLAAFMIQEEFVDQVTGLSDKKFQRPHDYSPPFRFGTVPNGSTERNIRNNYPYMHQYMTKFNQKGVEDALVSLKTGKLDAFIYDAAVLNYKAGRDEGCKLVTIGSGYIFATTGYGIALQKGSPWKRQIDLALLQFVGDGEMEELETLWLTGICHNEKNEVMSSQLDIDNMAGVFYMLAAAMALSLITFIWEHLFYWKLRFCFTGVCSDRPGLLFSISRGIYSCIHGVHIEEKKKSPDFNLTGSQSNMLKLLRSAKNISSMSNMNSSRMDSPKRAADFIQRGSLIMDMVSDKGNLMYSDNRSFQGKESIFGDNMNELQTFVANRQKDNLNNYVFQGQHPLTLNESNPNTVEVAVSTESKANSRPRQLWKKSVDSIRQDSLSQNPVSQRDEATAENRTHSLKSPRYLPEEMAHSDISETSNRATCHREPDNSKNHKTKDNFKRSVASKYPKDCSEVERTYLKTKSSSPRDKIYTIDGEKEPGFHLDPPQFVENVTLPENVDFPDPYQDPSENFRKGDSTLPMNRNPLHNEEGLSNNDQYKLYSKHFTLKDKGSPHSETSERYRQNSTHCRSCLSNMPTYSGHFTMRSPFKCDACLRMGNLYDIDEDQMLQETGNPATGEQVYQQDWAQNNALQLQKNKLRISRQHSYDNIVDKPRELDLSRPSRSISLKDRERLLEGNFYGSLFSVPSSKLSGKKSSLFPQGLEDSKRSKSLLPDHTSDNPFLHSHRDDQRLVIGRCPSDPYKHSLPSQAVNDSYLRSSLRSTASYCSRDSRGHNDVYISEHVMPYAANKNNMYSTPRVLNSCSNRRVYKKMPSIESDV

CCN(Cc1cc(=O)n2c(C(C)(C)C)csc2n1)c1ccc(F)cc1 [Example 10.18, 3-tert-butyl-7-[(N-ethyl-4-fluoro-anilino)methyl]thiazolo[3,2-a]pyrimidin-5-one]
EC50: 16900 nM
Max %: 88.2%

CCN(Cc1cc(=O)n2c(C(C)(C)O)csc2n1)c1ccc(F)cc1 [Example 10.19, 7-[(N-ethyl-4-fluoro-anilino)methyl]-3-(1-hydroxy-1-methyl-ethyl)thiazolo[3,2-a]pyrimidin-5-one]
EC50: 837 nM
Max %: 165%

CCN(Cc1cc(=O)n2c(C(C)O)csc2n1)c1ccc(F)cc1 (stereo not drawn) [Example 10.20, 7-[(N-ethyl-4-fluoro-anilino)methyl]-3-(1-hydroxyethyl)thiazolo[3,2-a]pyrimidin-5-one]
EC50: 2200 nM
Max %: 178%

CCN(Cc1cc(=O)n2c(CN3CCC34COC4)c(C)sc2n1)c1ccc(F)cc1 [Example 10.21, 7-[(N-ethyl-4-fluoro-anilino)methyl]-2-methyl-3-(6-oxa-1-azaspiro[3.3]heptan-1-ylmethyl)thiazolo[3,2-a]pyrimidin-5-one]
Max %: 117%

CCN(Cc1cc(=O)n2c(CNCCO)c(C)sc2n1)c1ccc(F)cc1 [Example 10.22, 7-[(N-ethyl-4-fluoro-anilino)methyl]-3-[(2-hydroxyethylamino)methyl]-2-methyl-thiazolo[3,2-a]pyrimidin-5-one]
EC50: 7500 nM
Max %: 156%

CCN(Cc1cc(=O)n2c(CO)c(C)sc2n1)c1cccc(C#N)c1 [Example 10.23, 3-(ethyl((3-(hydroxymethyl)-2-methyl-5-oxo-5H-thiazolo[3,2-a]pyrimidin-7-yl)methyl)amino)benzonitrile]
EC50: 22900 nM
Max %: 169%

CCN(Cc1cc(=O)n2c(COC)c(C)sc2n1)c1cccc(C#N)c1 [Example 10.24, 3-[ethyl-[[3-(methoxymethyl)-2-methyl-5-oxo-thiazolo[3,2-a]pyrimidin-7-yl]methyl]amino]benzonitrile]
EC50: 8900 nM
Max %: 160%

CCN(Cc1cc(=O)n2c(CSC)c(C)sc2n1)c1ccc(F)cc1 [Example 10.25, 7-((ethyl(4-fluorophenyl)amino)methyl)-2-methyl-3-((methylthio)methyl)-5H-thiazolo[3,2-a]pyrimidin-5-one]
EC50: 345 nM
Max %: 165%

CCN(Cc1cc(=O)n2c(Cl)c(C)sc2n1)c1ccc(F)cc1 [Example 11.1, 3-chloro-7-[[ethyl(4-fluorophenyl)amino]methyl]-2-methyl-5H-[1,3]thiazolo[3,2-a]pyrimidin-5-one]
EC50: 2000 nM
Max %: 159%

CCN(Cc1cc(=O)n2c(F)c(C)sc2n1)c1ccc(F)cc1 [Example 11.2, 7-[(N-ethyl-4-fluoro-anilino)methyl]-3-fluoro-2-methyl-thiazolo[3,2-a]pyrimidin-5-one]
Max %: 107%

CCN(Cc1cc(=O)n2cc(C)sc2n1)c1ccc(F)cc1 [Example 11.3, 7-[(N-ethyl-4-fluoro-anilino)methyl]-2-methyl-thiazolo[3,2-a]pyrimidin-5-one]
EC50: 3200 nM
Max %: 132%

CCN(Cc1cc(=O)n2c(I)c(C)sc2n1)c1ccc(F)cc1 [Example 11.4, 7-[(N-ethyl-4-fluoro-anilino)methyl]-3-iodo-2-methyl-thiazolo[3,2-a]pyrimidin-5-one]
Max %: 103%

CCN(Cc1cc(=O)n2c(Cl)csc2n1)c1ccc(F)cc1 [Example 11.5, 3-chloro-7-[(N-ethyl-4-fluoro-anilino)methyl]thiazolo[3,2-a]pyrimidin-5-one]
EC50: 4600 nM
Max %: 167%

CCN(Cc1cc(=O)n2cc(C)sc2n1)c1ccccc1 [Example 11.6, 7-[(N-ethylanilino)methyl]-2-methyl-thiazolo[3,2-a]pyrimidin-5-one]
EC50: 5000 nM
Max %: 133%

CCN(Cc1cc(=O)n2c(C(O)CCO)c(C)sc2n1)c1ccc(F)cc1 (stereo not drawn) [Example 12.1, 3-(1,3-dihydroxypropyl)-7-[(N-ethyl-4-fluoro-anilino)methyl]-2-methyl-thiazolo[3,2-a]pyrimidin-5-one]
EC50: 723 nM
Max %: 166%

CCN(Cc1cc(=O)n2c(C(F)CCO)c(C)sc2n1)c1ccc(F)cc1 (stereo not drawn) [Example 12.2, 7-[(N-ethyl-4-fluoro-anilino)methyl]-3-(1-fluoro-3-hydroxy-propyl)-2-methyl-thiazolo[3,2-a]pyrimidin-5-one]
EC50: 270 nM
Max %: 192%

CCN(Cc1cc(=O)n2c(C(O)CO)c(C)sc2n1)c1ccc(F)cc1 (stereo not drawn) [Example 12.5, 3-(1,2-dihydroxyethyl)-7-[(N-ethyl-4-fluoro-anilino)methyl]-2-methyl-thiazolo[3,2-a]pyrimidin-5-one]
EC50: 974 nM
Max %: 153%

CCN(Cc1cc(=O)n2c(CCCO)c(C)sc2n1)c1ccc(F)cc1 [Example 13.1, 7-[(N-ethyl-4-fluoro-anilino)methyl]-3-(3-hydroxypropyl)-2-methyl-thiazolo[3,2-a]pyrimidin-5-one]
EC50: 434 nM
Max %: 161%

CCN(Cc1cc(=O)n2c(CCCOC)c(C)sc2n1)c1ccc(F)cc1 [Example 13.2, 7-((Ethyl(4-fluorophenyl)amino)methyl)-3-(3-methoxypropyl)-2-methyl-5H-thiazolo[3,2-a]pyrimidin-5-one]
EC50: 913 nM
Max %: 130%

CCN(Cc1cc(=O)n2c(CCCCO)c(C)sc2n1)c1ccc(F)cc1 [Example 13.3, 7-((Ethyl(4-fluorophenyl)amino)methyl)-3-(4-hydroxybutyl)-2-methyl-5H-thiazolo[3,2-a]pyrimidin-5-one]
EC50: 783 nM
Max %: 137%

CCN(Cc1cc(=O)n2c(CCO)c(C)sc2n1)c1ccc(F)cc1 [Example 13.4, 7-((Ethyl(4-fluorophenyl)amino)methyl)-3-(2-hydroxyethyl)-2-methyl-5H-thiazolo[3,2-a]pyrimidin-5-one]
EC50: 777 nM
Max %: 185%

CCN(Cc1cc(=O)n2c(CCOC)c(C)sc2n1)c1ccc(F)cc1 [Example 13.5, 7-[[Ethyl(4-fluorophenyl)amino]methyl]-3-(2-methoxyethyl)-2-methyl-5H-[1,3]thiazolo[3,2-a]pyrimidin-5-one]
EC50: 1000 nM
Max %: 152%

CCN(Cc1cc(=O)n2c(CCC(N)=O)c(C)sc2n1)c1ccc(F)cc1 [Example 13.6, 3-(7-[[ethyl(4-fluorophenyl)amino]methyl]-2-methyl-5-oxo-5H-[1,3]thiazolo[3,2-a]pyrimidin-3-yl)propanamide]
EC50: 1400 nM
Max %: 125%

CCN(Cc1cc(=O)n2c(CCC#N)c(C)sc2n1)c1ccc(F)cc1 [Example 13.7, 3-[7-[(N-ethyl-4-fluoro-anilino)methyl]-2-methyl-5-oxo-thiazolo[3,2-a]pyrimidin-3-yl]propanenitrile]
EC50: 547 nM
Max %: 137%

CCN(Cc1cc(=O)n2c(CCC(=O)N(C)C)c(C)sc2n1)c1ccc(F)cc1 [Example 13.8, 3-[7-[(N-ethyl-4-fluoro-anilino)methyl]-2-methyl-5-oxo-thiazolo[3,2-a]pyrimidin-3-yl]-N,N-dimethyl-propanamide]
Max %: 61.2%

CCN(Cc1cc(=O)n2c(CCC(C)(C)O)c(C)sc2n1)c1ccc(F)cc1 [Example 13.9, 7-[[Ethyl(4-fluorophenyl)amino]methyl]-3-(3-hydroxy-3-methylbutyl)-2-methyl-5H-[1,3]thiazolo[3,2-a]pyrimidin-5-one]
EC50: 5000 nM
Max %: 166%

CCN(Cc1cc(=O)n2c(C3CC3C(N)=O)c(C)sc2n1)c1ccc(F)cc1 (stereo not drawn) [Example 14.1, 2-[7-[(N-ethyl-4-fluoro-anilino)methyl]-2-methyl-5-oxo-thiazolo[3,2-a]pyrimidin-3-yl]cyclopropanecarboxamide]
EC50: 2600 nM
Max %: 163%

CCN(Cc1cc(=O)n2c(C3CC3C#N)c(C)sc2n1)c1ccc(F)cc1 (stereo not drawn) [Example 14.2, 2-(7-[[ethyl(4-fluorophenyl)amino]methyl]-2-methyl-5-oxo-5H-[1,3]thiazolo[3,2-a]pyrimidin-3-yl)cyclopropane-1-carbonitrile]
EC50: 122 nM
Max %: 205%

CCc1cc(C(F)(F)F)nn1Cc1cc(=O)n2c(C3CC3CO)c(C)sc2n1 (stereo not drawn) [Example 15.1, 7-((5-ethyl-3-(trifluoromethyl)-1H-pyrazol-1-yl)methyl)-3-(2-(hydroxymethyl)cyclopropyl)-2-methyl-5H-thiazolo[3,2-a]pyrimidin-5-one]
EC50: 2200 nM
Max %: 144%

Cc1sc2nc(Cn3nc(C4CC4)c(F)c3C(F)(F)F)cc(=O)n2c1C1CC1CO (stereo not drawn) [Example 15.9, 7-((3-cyclopropyl-4-fluoro-5-(trifluoromethyl)-1H-pyrazol-1-yl)methyl)-3-(trans-2-(hydroxymethyl)cyclopropyl)-2-methyl-5H-thiazolo[3,2-a]pyrimidin-5-one]
EC50: 18600 nM
Max %: 117%

Cc1sc2nc(Cn3nc(C(F)(F)F)c(F)c3C3CC3)cc(=O)n2c1C1CC1CO (stereo not drawn) [Example 15.10, 7-((5-cyclopropyl-4-fluoro-3-(trifluoromethyl)-1H-pyrazol-1-yl)methyl)-3-(trans-2-(hydroxymethyl)cyclopropyl)-2-methyl-5H-thiazolo[3,2-a]pyrimidin-5-one]
EC50: 3100 nM
Max %: 133%

CC(C)c1sc2nc(Cn3nc(C(F)(F)F)cc3C3CC3)cc(=O)n2c1C1CC1CO (stereo not drawn) [Example 15.24, 7-[[5-cyclopropyl-3-(trifluoromethyl)pyrazol-1-yl]methyl]-3[2-(hydroxymethyl)cyclopropyl]-2-isopropyl-thiazolo[3,2-a]pyrimidin-5-one]
EC50: 1400 nM
Max %: 138%
